Target: T1, ubiquitin (Homo sapiens, UniProt P0CG47)
T1 construct: mixed with 1 mg/mL of ubiquitin
Experiment: Direct binding to ubiquitin: in vitro ubiquitination and intact protein analysis (UPLC-Q/TOF or MALDI-TOF)
Conditions: 10 μM, ubiquitin 1 mg/mL, E1, E2, E3 (ITCH/AIP4), ATP, 37° C., 4 hours
Description: To confirm that the compounds represented by Formulae V to VIII of the present invention directly bind to ubiquitin, in vitro ubiquitination assay was performed, and then the compounds of Preparation Examples I′ to IV″′ (BRD4 degraders) bound to ubiquitin, a BRD4 inhibitor, and ubiquitin were detected using intact protein analysis. The intact protein analysis is a method capable of measuring a compound bound to a protein by mass spectrometry without protease pretreatment. Experiments were performed using ITCH/AIP4 proteins (manufacturer: R&D System), which are E3 ligases, in order to bind ubiquitin and BRD4 degraders in vitro.
Specifically, 10 μM of each degrader was mixed with 1 mg/mL of ubiquitin, 10× buffer, 5 nM of E1, 100 nM of E2, 14 nM of E3, and 1 mM of ATP to react in a 37° C. incubator for 4 hours. To the reacted samples, acetonitrile and formic acid were added for UPLC-Q/TOF or MALDI-TOF analysis, resulting in the final concentrations of 50% acetonitrile and 0.1% formic acid, respectively. For UPLC-Q/TOF, a Micromass Q-TOF micro Synapt High-definition mass spectrometer equipped with ESI was used to perform the mass spectrometry. […] The experimental results were analyzed using TOF/TOF™ Series Explorer™ software version 4.0.

## Cc1sc2c(c1C)C(c1ccc(Cl)cc1)=N[C@@H](CC(=O)OC(C)(C)C)c1nnc(C)n1-2 [JQ1]
  molecular weight peak of ubiquitin bound to the compound (intact protein analysis, FIGS. 3A-3J): not detected

Reference: patent US20240425517A1, “NOVEL COMPOUND FOR DEGRADATION OF TARGET PROTEIN OR POLYPEPTIDE BY POLYUBIQUITINATION” (PRAZER THERAPEUTICS INC., priority 2021, published 2024)
